Experimental data from PMC11151825 (RSC Chemical Biology, 2024).
Where two headings read alike, the source gives them in different places. Square brackets hold non-standard residues; d marks the D form. Peptide text beside a SMILES is read from it. Abu = CC[C@H](N)C(=O)O

Legend:
[1] = the molecule shown is the open-chain precursor, 3 steps
human C5aR1 = human C5aR1 (Homo sapiens, UniProt P21730); assay: cell-based; details: SEM
[2] = the molecule shown is the open-chain precursor
[3] = the molecule shown is the open-chain precursor; remark: listed apart in the source

Sequence of human C5aR1 (P21730 whole entry): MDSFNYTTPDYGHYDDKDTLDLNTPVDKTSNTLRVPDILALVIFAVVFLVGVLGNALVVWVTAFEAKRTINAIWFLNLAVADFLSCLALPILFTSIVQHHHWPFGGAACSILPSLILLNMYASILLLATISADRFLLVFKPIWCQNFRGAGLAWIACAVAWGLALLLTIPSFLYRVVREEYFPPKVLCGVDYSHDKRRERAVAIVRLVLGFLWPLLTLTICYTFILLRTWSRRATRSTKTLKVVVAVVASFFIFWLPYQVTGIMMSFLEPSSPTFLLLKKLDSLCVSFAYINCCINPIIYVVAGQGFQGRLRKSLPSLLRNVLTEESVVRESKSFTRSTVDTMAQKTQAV

Row | Compound | ring closure, conversion by HPLC (% (HPLC peak area)) [2] | ring closure, conversion by HPLC (% (HPLC peak area)) [3] | other results
1 | CC(C)CC(NCCCC[C@@H]1NC(=O)[C@@H](Cc2c[nH]c3ccccc23)NC(=O)[C@H](Cc2ccccc2)NC(=O)[C@@H](NC(=O)[C@H](N)Cc2ccccc2)CSSC[C@@H](C(=O)N[C@H](C(=O)N[C@H](C(=O)N[C@H]2CSSC[C@@H]3NC(=O)CNC(=O)[C@@H]4CCCN4C(=O)[C@H]([C@@H](C)O)NC(=O)[C@H](CC(N)=O)NC(=O)[C@@H]4CSSC[C@@H](C(=O)N[C@H](C(=O)O)[C@@H](C)O)NC(=O)[C@H](C(C)C)NC(=O)[C@@H]5CCCN5C(=O)[C@H](Cc5c[nH]c6ccccc56)NC(=O)[C@H](CO)NC(=O)[C@H](CSSC[C@H](NC(=O)[C@H]([C@@H](C)O)NC(=O)[C@H](CCC(N)=O)NC(=O)CNC2=O)C(=O)N[C@@H](C(C)C)C(=O)NCC(=O)NCC(=O)N[C@@H]([C@@H](C)O)C(=O)N4)NC(=O)[C@H]([C@@H](C)O)NC3=O)C(C)C)[C@@H](C)O)NC(=O)[C@H]([C@@H](C)O)NC1=O)=C1C(=O)CC(C)(C)CC1=O |  |  | ring closure, yield over several steps ([1]; 96-membered ring): 16.1%
2 | CC(C)CC(NCCCC[C@H](NC(=O)[C@@H](N)Cc1ccccc1)C(=O)N1CCC[C@H]1C(=O)N[C@@H](CC(C)C)C(=O)N[C@@H](C)C(=O)N[C@@H](C)C(=O)N[C@H](C)C(=O)N[C@@H](CCCNC(=N)N)C(=O)N[C@H](C(=O)N[C@H]1CSSC[C@@H]2NC(=O)CNC(=O)[C@@H]3CCCN3C(=O)[C@H]([C@@H](C)O)NC(=O)[C@H](CC(N)=O)NC(=O)[C@@H]3CSSC[C@@H](C(=O)N[C@H](C(=O)O)[C@@H](C)O)NC(=O)[C@H](C(C)C)NC(=O)[C@@H]4CCCN4C(=O)[C@H](Cc4c[nH]c5ccccc45)NC(=O)[C@H](CO)NC(=O)[C@H](CSSC[C@H](NC(=O)[C@H]([C@@H](C)O)NC(=O)[C@H](CCC(N)=O)NC(=O)CNC1=O)C(=O)N[C@@H](C(C)C)C(=O)NCC(=O)NCC(=O)N[C@@H]([C@@H](C)O)C(=O)N3)NC(=O)[C@H]([C@@H](C)O)NC2=O)C(C)C)=C1C(=O)CC(C)(C)CC1=O |  |  | ring closure, yield over several steps ([1]; 96-membered ring): 22%
3 | CC[C@H](C)[C@@H]1NC(=O)[C@@H]2CCCN2C(=O)[C@@H]2CCCN2C(=O)[C@H]([C@@H](C)CC)NC(=O)[C@H](CO)NC(=O)[C@H](CCCCNC(CC(C)C)=C2C(=O)CC(C)(C)CC2=O)NC(=O)[C@H]([C@@H](C)O)NC(=O)[C@@H](NC(=O)CN)CSSC[C@@H](C(=O)NCC(=O)N[C@H](C(=O)N[C@H]2CSSC[C@@H]3NC(=O)CNC(=O)[C@@H]4CCCN4C(=O)[C@H]([C@@H](C)O)NC(=O)[C@H](CC(N)=O)NC(=O)[C@@H]4CSSC[C@@H](C(=O)N[C@H](C(=O)O)[C@@H](C)O)NC(=O)[C@H](C(C)C)NC(=O)[C@@H]5CCCN5C(=O)[C@H](Cc5c[nH]c6ccccc56)NC(=O)[C@H](CO)NC(=O)[C@H](CSSC[C@H](NC(=O)[C@H]([C@@H](C)O)NC(=O)[C@H](CCC(N)=O)NC(=O)CNC2=O)C(=O)N[C@@H](C(C)C)C(=O)NCC(=O)NCC(=O)N[C@@H]([C@@H](C)O)C(=O)N4)NC(=O)[C@H]([C@@H](C)O)NC3=O)C(C)C)NC1=O |  |  | ring closure, yield over several steps ([1]; 105-membered ring): 18.7%
4 | CC[C@H](C)[C@H](NC(=O)[C@H](CCCNC(=N)N)NC(=O)[C@H](CCCNC(=N)N)NC(=O)[C@H](CC(C)C)NC(=O)[C@H](Cc1ccccc1)NC(=O)CNC(=O)CNC(=O)[C@@H](N)Cc1ccc(O)cc1)C(=O)N[C@@H](CCCNC(=N)N)C(=O)N1CCC[C@H]1C(=O)N[C@@H](CCCCNC(CC(C)C)=C1C(=O)CC(C)(C)CC1=O)C(=O)N[C@@H](CC(C)C)C(=O)N[C@@H](CCCCNC(CC(C)C)=C1C(=O)CC(C)(C)CC1=O)C(=O)NCC(=O)N[C@H]1CSSC[C@@H]2NC(=O)[C@H](C(C)C)NC(=O)[C@@H]3CCCN3C(=O)[C@H](CC(C)C)NC(=O)CNC(=O)[C@H](CC(N)=O)NC(=O)[C@H](CCCNC(=N)N)NC(=O)[C@H]([C@@H](C)O)NC(=O)[C@@H]3CSSC[C@@H](C(=O)N[C@@H](CC(N)=O)C(=O)O)NC(=O)[C@H]([C@@H](C)O)NC(=O)CNC(=O)CNC(=O)[C@H](C(C)C)NC(=O)[C@H](CSSC[C@H](NC(=O)[C@H]([C@@H](C)O)NC1=O)C(=O)N[C@@H](CO)C(=O)N[C@@H](Cc1c[nH]c4ccccc14)C(=O)N1CCC[C@H]1C(=O)N[C@@H](C(C)C)C(=O)N3)NC(=O)[C@H]([C@@H](C)O)NC(=O)[C@H](CCC(N)=O)NC(=O)CNC2=O |  |  | ring closure, yield over several steps ([1]; 120-membered ring): 11.2%
5 | CC[C@H](C)[C@H](NC(=O)[C@H](CCCNC(=N)N)NC(=O)[C@H](CCCNC(=N)N)NC(=O)[C@H](CC(C)C)NC(=O)[C@H](Cc1ccccc1)NC(=O)CNC(=O)CNC(=O)[C@@H](N)Cc1ccc(O)cc1)C(=O)N[C@@H](CCCNC(=N)N)C(=O)N1CCC[C@H]1C(=O)N[C@@H](CCCCNC(CC(C)C)=C1C(=O)CC(C)(C)CC1=O)C(=O)N[C@@H](CC(C)C)C(=O)N[C@@H](CCCCNC(CC(C)C)=C1C(=O)CC(C)(C)CC1=O)C(=O)N[C@H](C(=O)N[C@H]1CSSC[C@@H]2NC(=O)CNC(=O)[C@@H]3CCCN3C(=O)[C@H]([C@@H](C)O)NC(=O)[C@H](CC(N)=O)NC(=O)[C@@H]3CSSC[C@@H](C(=O)N[C@H](C(=O)O)[C@@H](C)O)NC(=O)[C@H](C(C)C)NC(=O)[C@@H]4CCCN4C(=O)[C@H](Cc4c[nH]c5ccccc45)NC(=O)[C@H](CO)NC(=O)[C@H](CSSC[C@H](NC(=O)[C@H]([C@@H](C)O)NC(=O)[C@H](CCC(N)=O)NC(=O)CNC1=O)C(=O)N[C@@H](C(C)C)C(=O)NCC(=O)NCC(=O)N[C@@H]([C@@H](C)O)C(=O)N3)NC(=O)[C@H]([C@@H](C)O)NC2=O)C(C)C |  |  | ring closure, yield over several steps ([1]; 111-membered ring): 17.4%
6 | CC[C@H](C)[C@H](NC(=O)[C@H](CCCNC(=N)N)NC(=O)[C@H](CCCNC(=N)N)NC(=O)[C@H](CC(C)C)NC(=O)[C@H](Cc1ccccc1)NC(=O)CNC(=O)CNC(=O)[C@@H](N)Cc1ccc(O)cc1)C(=O)N[C@@H](CCCNC(=N)N)C(=O)N1CCC[C@H]1C(=O)N[C@@H](CCCCNC(CC(C)C)=C1C(=O)CC(C)(C)CC1=O)C(=O)N[C@@H](CC(C)C)C(=O)N[C@@H](CCCCNC(CC(C)C)=C1C(=O)CC(C)(C)CC1=O)C(=O)N[C@H](C(=O)N[C@H]1CSSC[C@@H]2NC(=O)[C@H]([C@@H](C)O)NC(=O)CNC(=O)CNC(=O)[C@H](C(C)C)NC(=O)[C@@H]3CSSC[C@@H](C(=O)N[C@@H](CO)C(=O)O)NC(=O)[C@H]([C@@H](C)O)NC(=O)[C@H](CSSC[C@H](NC(=O)[C@H](C(C)C)NC(=O)[C@@H]4CCCN4C(=O)[C@H](CC(C)C)NC(=O)CNC(=O)[C@H](CC(N)=O)NC(=O)[C@H](CCCNC(=N)N)NC(=O)[C@H]([C@@H](C)O)NC1=O)C(=O)NCC(=O)N[C@@H](CCC(N)=O)C(=O)N[C@@H]([C@@H](C)O)C(=O)N3)NC(=O)CNC(=O)[C@@H]1CCCN1C(=O)[C@H]([C@@H](C)O)NC(=O)[C@H](CC(N)=O)NC2=O)C(C)C |  |  | ring closure, yield over several steps ([1]; 120-membered ring): 7.1%
7 | CC[C@H](NC(=O)[C@H](C)NC(=O)[C@H](CC(C)C)NC(=O)[C@@H]1CCCN1C(=O)[C@H](CCCCNC(CC(C)C)=C1C(=O)CC(C)(C)CC1=O)NC(=O)[C@@H](N)Cc1ccccc1)C(=O)N[C@H](C)C(=O)N[C@@H](CCCNC(=N)N)C(=O)N[C@H](C(=O)N[C@H]1CSSC[C@@H]2NC(=O)CNC(=O)[C@@H]3CCCN3C(=O)[C@H]([C@@H](C)O)NC(=O)[C@H](CC(N)=O)NC(=O)[C@@H]3CSSC[C@@H](C(=O)N[C@H](C(=O)O)[C@@H](C)O)NC(=O)[C@H](C(C)C)NC(=O)[C@@H]4CCCN4C(=O)[C@H](Cc4c[nH]c5ccccc45)NC(=O)[C@H](CO)NC(=O)[C@H](CSSC[C@H](NC(=O)[C@H]([C@@H](C)O)NC(=O)[C@H](CCC(N)=O)NC(=O)CNC1=O)C(=O)N[C@@H](C(C)C)C(=O)NCC(=O)NCC(=O)N[C@@H]([C@@H](C)O)C(=O)N3)NC(=O)[C@H]([C@@H](C)O)NC2=O)C(C)C |  |  | ring closure, yield over several steps ([1]; 96-membered ring): 1.1%
8 | CC[C@H](NC(=O)[C@H](C)NC(=O)[C@H](CC(C)C)NC(=O)[C@@H]1CCCN1C(=O)[C@H](CCCCN)NC(=O)[C@@H](N)Cc1ccccc1)C(=O)N[C@H](C)C(=O)N[C@@H](CCCNC(=N)N)C(=O)O [BM221] (H-FKPLA[Abu][dA]R-OH) |  |  | EC50 (human C5aR1): 2.8 ± 0.9 nM
9 | H-GCTCSWPVCTRNGLPVCGQTCVGGTCN-OH (6 free Cys) | 9.5 | 2.6 | 
10 | H-GCYFQNCPRGVCGQTCVGGTCNTPGCTCSWPVCT-OH (epitope Cys2-Cys7 disulfide; scaffold I-IV, II-V, III-VI) |  |  | ring closure, yield over several steps ([1]; 102-membered ring): 1.7%
11 | H-GCYIQNCPLGVCGQTCVGGTCNTPGCTCSWPVCT-OH (epitope Cys2-Cys7 disulfide; scaffold I-IV, II-V, III-VI) |  |  | ring closure, yield over several steps ([1]; 102-membered ring): 10.9%
12 | H-RNGLPVCGETCVGGTCNTPGCTCSWPVCT-OH (disulfides I-IV, II-V, III-VI) |  |  | ring closure, yield over several steps ([1]; 87-membered ring): 10.6%
13 | H-RNGLPVCGQTCVGGTCNTPGCTCSWPVCT-OH (disulfides I-IV, II-V, III-VI) |  |  | ring closure, yield over several steps ([1]; 87-membered ring): 24.8%
14 | H-TCNTPGCTCSWPVCTRNGLPVCGQTCV-OH (6 free Cys) | 8.1 | 3.7 | 
15 | H-VCGATCVGGTCNTPGCTCSWPVCT-OH (6 free Cys) | 4.6 | 3.8 | 
16 | H-VCGETCVGGTCNTPGCTCSWPVCT-OH (6 free Cys) | 23.4 | 15.4 | 
17 | H-VCGQTCVGGTCNTPGCTCSWPVCT-OH (6 free Cys) | 16.1 | 9.4 | 
18 | H-VCTRNGLPVCGQTCVGGTCNTPGCTCS-OH (6 free Cys) | 30.5 | 27 | 
19 | cyclo-(CGQTCVGGTCNTPGCTCSWPVCTRNGLPV) (6 free Cys) | 26.1 | 23.5 | 
